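How tested: cells in 96-well plates exposed to compound for 48 hours at five concentrations. At the GI50, growth is halved.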 Calls of active or inactive are those of the source. Rule as the data show it: active = GI50 up to about 1.1 µM and inactive = higher.
Tests used:
Assay in all cases: DTP human tumour cell line panel, 48 h
NCI-H23 = test system: NCI-H23
PC-3 = test system: PC-3
MDA-N = test system: MDA-N
OVCAR-8 = test system: OVCAR-8
A498 = test system: A498
UO-31 = test system: UO-31
SW-620 = test system: SW-620
CAKI-1 = test system: CAKI-1
HCT-116 = test system: HCT-116
UACC-257 = test system: UACC-257
SK-MEL-5 = test system: SK-MEL-5
RPMI-8226 = test system: RPMI-8226
SF-268 = test system: SF-268
HOP-62 = test system: HOP-62
SN12C = test system: SN12C
NCI-H226 = test system: NCI-H226
HOP-92 = test system: HOP-92
SK-MEL-28 = test system: SK-MEL-28
SF-295 = test system: SF-295
LOX IMVI = test system: LOX IMVI
MDA-MB-435 = test system: MDA-MB-435
COLO 205 = test system: COLO 205
UACC-62 = test system: UACC-62
CCRF-CEM = test system: CCRF-CEM
HT-29 = test system: HT-29
SR = test system: SR
SF-539 = test system: SF-539
HCC 2998 = test system: HCC 2998
BT-549 = test system: BT-549
DU-145 = test system: DU-145
786-0 = test system: 786-0
M14 = test system: M14
MCF7 = test system: MCF7
SK-MEL-2 = test system: SK-MEL-2
HCT-15 = test system: HCT-15
OVCAR-3 = test system: OVCAR-3
U-251 = test system: U-251
K562 = test system: K562
MOLT-4 = test system: MOLT-4
NCI-H522 = test system: NCI-H522
SK-OV-3 = test system: SK-OV-3
OVCAR-4 = test system: OVCAR-4
RXF 393 = test system: RXF 393
EKVX = test system: EKVX
ACHN = test system: ACHN
TK-10 = test system: TK-10
KM12 = test system: KM12
NCI/ADR-RES = test system: NCI/ADR-RES
OVCAR-5 = test system: OVCAR-5
SNB-75 = test system: SNB-75
IGROV-1 = test system: IGROV-1
MDA-MB-231 = test system: MDA-MB-231
SNB-19 = test system: SNB-19
A549 = test system: A549
Malme-3M = test system: Malme-3M
NCI-H460 = test system: NCI-H460

CC1(CCCCO)C=CC(S(=O)(=O)c2ccccc2)CC1 (stereo unspecified)
GI50 (NCI-H23): 5.04 µM (inactive) | GI50 (PC-3): 4.11 µM (inactive) | GI50 (MDA-N): 3.42 µM (inactive) | GI50 (OVCAR-8): 10.5 µM (inactive) | GI50 (A498): 8.59 µM (inactive) | GI50 (UO-31): 4.16 µM (inactive) | GI50 (SW-620): 5.87 µM (inactive) | GI50 (CAKI-1): 10.7 µM (inactive) | GI50 (HCT-116): 4.15 µM (inactive) | GI50 (UACC-257): 4.41 µM (inactive) | GI50 (SK-MEL-5): 4.27 µM (inactive) | GI50 (RPMI-8226): 1.56 µM (inactive) | GI50 (SF-268): 1.36 µM (inactive) | GI50 (HOP-62): 2.64 µM (inactive) | GI50 (SN12C): 11 µM (inactive) | GI50 (NCI-H226): 2.43 µM (inactive) | GI50 (HOP-92): 2.84 µM (inactive) | GI50 (SK-MEL-28): 14.9 µM (inactive) | GI50 (SF-295): 12 µM (inactive) | GI50 (LOX IMVI): 1.78 µM (inactive) | GI50 (MDA-MB-435): 9.42 µM (inactive) | GI50 (COLO 205): 4.37 µM (inactive) | GI50 (UACC-62): 6.15 µM (inactive) | GI50 (CCRF-CEM): 2.67 µM (inactive) | GI50 (HT-29): 1.82 µM (inactive) | GI50 (SR): 2.33 µM (inactive) | GI50 (SF-539): 7.91 µM (inactive) | GI50 (HCC 2998): 5.9 µM (inactive) | GI50 (BT-549): 14.4 µM (inactive) | GI50 (DU-145): 5.14 µM (inactive) | GI50 (786-0): 3.96 µM (inactive) | GI50 (M14): 3.4 µM (inactive) | GI50 (MCF7): 3.15 µM (inactive) | GI50 (SK-MEL-2): 11.1 µM (inactive) | GI50 (HCT-15): 3.69 µM | GI50 (OVCAR-3): 6.17 µM (inactive) | GI50 (U-251): 6.95 µM (inactive) | GI50 (K562): 3.24 µM (inactive) | GI50 (MOLT-4): 3.15 µM (inactive) | GI50 (NCI-H522): 1.87 µM (inactive) | GI50 (SK-OV-3): 10.8 µM (inactive) | GI50 (OVCAR-4): 8.67 µM (inactive) | GI50 (RXF 393): 5.45 µM (inactive) | GI50 (EKVX): 3.1 µM (inactive) | GI50 (ACHN): 5.57 µM (inactive) | GI50 (TK-10): 6.97 µM (inactive) | GI50 (KM12): 1.86 µM (inactive) | GI50 (NCI/ADR-RES): 2.59 µM (inactive) | GI50 (OVCAR-5): 4.85 µM (inactive) | GI50 (SNB-75): 1.46 µM (inactive) | GI50 (IGROV-1): 2.38 µM (inactive) | GI50 (MDA-MB-231): 4.31 µM (inactive) | GI50 (SNB-19): 13.6 µM (inactive) | GI50 (A549): 3.64 µM (inactive) | GI50 (Malme-3M): 0.581 µM (active) | GI50 (NCI-H460): 3.15 µM (inactive)
